Values of other authors, collected in patent US20230404078A1, “HERBICIDAL COMBINATIONS” (priority 2020, published 2023).

Key:
[1] = tested on: broadleaf weeds; details: Clethodim itself
[2] = tested on: wheat; details: in vivo

SMILES	efficacy against broadleaf weeds [1]	injury in the wheat crop [2]	visual injury in wheat [2]
CCSC(C)CC1CC(=O)C(/C(CC)=N/OC/C=C/Cl)=C(O)C1 (stereo not drawn) [Clethodim, 2-[1-[[[(2£)-3-chloro-2-propen-l-yl]oxy]imino]propyl]-5-[2-(ethylthio)propyl]-3-hydroxy-2-cyclohexen-1-one]	no efficacy		
COc1cc(OC)n2nc(NS(=O)(=O)c3c(C(F)(F)F)ccnc3OC)nc2n1 [Pyroxsulam]		greater than 10%	up to 10%
